Here are results for one compound from patent US5191093A, “Process for preparing crystalline calcium pseudomonate” (Beecham Group p.l.c., priority 1990, dated 1993).

Series [1] is classed as physicochemical. The text has this:
|Thermal stability data: for crystalline calcium |pseudomate dihydrate, amorphous calcium pseudomonate |Percentage |Initial |Potency |after |Storage ** | ** Expressed as percentage of initial purity.

The subject of a further series is Corynebacterium xerosis. The series is described as follows: In vitro MIC against human bacteria, nutrient agar with 5% chocolated horse blood. The note with it: strain 9755, 18 hours at 37° C. In kind it is cell-based. Here is the method: (§1) The activity of the compounds of the Examples against various bacteria which are important in diseases of humans, was assayed in vitro using serial dilutions in nutrient agar with 5% chocolated horse blood.

For the next series, the system named is E.coli. Described as above. The following applies: Escherichia coli, 18 hours at 37° C. The series is classed as cell-based. Here is the method:
as §1

The test system of the next series is Haemophilus influenzae. The series is described as above. In kind it is cell-based. The following applies: 18 hours at 37° C. Here is the method: as §1
A further series deals with P.aeruginosa. Described as above. The series is classed as cell-based. The note with it: Pseudomonas aeruginosa; strain 10662; 18 hours at 37° C. On the procedure: as §1
Another series has as its system Neisseria catarrhalis. The description is as above. The series is classed as cell-based. The note with it: strain 1502, 18 hours at 37° C. Here is the method:
as §1

The next series has as its system R.mirabilis. Described as above. The series is classed as cell-based. The following applies: strain 889; 18 hours at 37° C. Here is the method: as §1
The next series has as its system Bacillus subtilis. Described as above. The series is classed as cell-based. The following applies: strain 6633, 18 hours at 37° C. Here is the method: as §1
The subject of the next series is Pasteurella multocida. The description is as above. The series is classed as cell-based. The note with it: strain 1633, 18 hours at 37° C. On the procedure:
as §1

Another series has as its system Sarcina lutea. The series is described as above. In kind it is cell-based. The note with it: Micrococcus luteus; strain 8340; 18 hours at 37° C. Here is the method:
as §1

The subject of another series is S.faecalis. The description is as above. The series is classed as cell-based. The note with it: 18 hours at 37° C. Here is the method: as §1

Like-named read-outs stand apart in the source and are kept apart here. Some results are limits rather than exact numbers.

In the case of `CC(=CC(=O)OCCCCCCCCC(=O)O)CC1OCC(CC2OC2C(C)C(C)O)C(O)C1O` (centres unmarked) [Calcium Pseudomonate dihydrate, Calcium Pseudomonate Dihydrate], the “Percentage Initial Potency after Storage” value is given as 97% in series [1] (192 h) and 98.9% in series [1] (240 h). Besides, the MIC was above 128 µg/mL in the series on Corynebacterium xerosis; 128 µg/mL against E.coli (NCTC10418, strain NCTC 10418); 2 µg/mL in the series on E.coli (strain ESS); 0.13 µg/mL in the series on Haemophilus influenzae (Haemophilus influenzae, strain Q1, read-out: MIC); 0.13 µg/mL with Haemophilus influenzae (strain Wy21); above 128 µg/mL against P.aeruginosa. Besides, the MIC in the series with Neisseria catarrhalis is 0.13 µg/mL; against R.mirabilis, 128 µg/mL; in the series with Bacillus subtilis it was 0.5 µg/mL; against Pasteurella multocida, 0.5 µg/mL; in the series with Sarcina lutea, above 128 µg/mL; in the series with S.faecalis (Enterococcus faecalis, strain Tunisia, read-out: MIC), 128 µg/mL. Besides, the MIC against S.faecalis (strain I(ER+)), with S.faecalis (strain I) and in the series with S.faecalis (strain PAGE) was 128 µg/mL each time.
